Experimental data taken from patent publication US7989417B2, “Linkers for radiopharmaceutical compounds” (Bracco Imaging S.p.A., priority 2003, dated 2011).

How the values were obtained:
rat epididymal fat cells [1] = assay: Fat cell assay: activation of glucose oxidation; assay type: cell-based; settings: buffers containing serum albumin; compared with native insulin
human serum albumin = human serum albumin (Homo sapiens, UniProt P02768); assay: Binding to human serum albumin by ultrafiltration; settings: 1 nM insulin solution in 0.6 mM human serum albumin, spiked with 125I-labeled insulin
Description: Binding to human serum albumin is determined by ultrafiltration according to Whitlam J. B. & Brown K. F.: J. Pharm. Sci. 70, 146-150, 1981, applying 1 nM bovine insulin solution in 0.6 mM human serum albumin, spiked with ^125I-labeled insulin. 95% of the insulin is bound. It is evident that such binding to albumin will reduce the renal elimination of the modified insulin (Compounds B and D) relative to that of native insulin.

rat epididymal fat cells [2] = settings: bound to a 1:1 conjugate of avidin and ferritin; compared with insulin; cited from earlier work
[3] = Tracer dose biodistribution in xenografted PC3 tumor-bearing mice; settings: Lu-177 labelled; for uptake in the tumor (in words): 1 and 24 h; for uptake in the mouse pancreas (in words): compared with L134, pancreas known to have GRP receptors
Description: In all studies, mice were administered 100 μL of ^177Lu-labelled test compound at 200 μCi/kg, i.v., with a residence time of 1 and 24 h per group (n=3-4). Tissues were analyzed in an LKB 1282 CompuGamma counter with appropriate standards.

PC3 tumor = assay: Radiotherapy studies in PC3 tumor-bearing nude mouse model; assay type: in vivo; settings: Lu-177 labelled; for survival, short term efficacy study: 30 mCi/kg i.v. or s.c., up to 30 days, versus no treatment and versus same dose of L134
Description: A. Short Term Efficacy Studies: • Radiotherapy studies were performed using the PC3 tumor-bearing nude mouse model. […] (n=12 for each treatment group and n=36 for the untreated control group). For the first study, mice were administered 100 μL of ^177Lu-labelled compound of the invention at 30 mCi/kg, i.v, or s.c. under sterile conditions. The subjects were housed in a barrier environment for up to 30 days. Body weight and tumor size (by caliper measurement) were collected on each subject 3 times per week for the duration of the study. Criteria for early termination included: death; loss of total body weight (TBW) equal to or greater than 20%; tumor size equal to or greater than 2 cm^3.

Question: Which “activity in fat cell assay (activation of glucose oxidation)” value (rat epididymal fat cells [1]) does the source give for “Bovine 1-[[(3β,5β,12α)-23-[(1,1-dimethyl)ethoxycarbonyl]-12-hydroxy-24-norcholan-3-yl]amino]carbonyl-3,5-bis[[4-(insulin-N^εB29-yl)-1,4-dioxobutyl]amino]benzene [Compound D]” here?
Answer: identical activity to native insulin

Question: Which “bound to human serum albumin” value (human serum albumin) does the source give for “Bovine N^eB29-[4-[[(3β,5β,12α)-23-carboxy-12-hydroxy-24-norcholan-3-yl]amino]-4-oxobutanoyl]-insulin [Compound B]” here?
Answer: 95%

Question: What about the “activity in fat cell assay (activation of glucose oxidation)” value (rat epididymal fat cells [1]) of the same compound?
Answer: identical activity to native insulin

Question: Which “dose-response curve for the activation of glucose oxidation” value (rat epididymal fat cells [2]) does the source give for N^εB29-biotinylinsulin here?
Answer: same dose-response curve as insulin

Question: Which results are given for CSCC[C@H](NC(=O)[C@H](CC(C)C)NC(=O)[C@H](Cc1c[nH]cn1)NC(=O)CNC(=O)[C@@H](NC(=O)[C@H](C)NC(=O)[C@H](Cc1c[nH]c2ccccc12)NC(=O)[C@H](CCC(N)=O)NC(=O)CC[C@@H](C)[C@H]1CC[C@H]2[C@@H]3CC[C@@H]4C[C@@H](NC(=O)CNC(=O)CN5CCN(CC(=O)O)CCN(CC(=O)O)CCN(CC(=O)O)CC5)CC[C@]4(C)[C@H]3C[C@H](O)[C@]12C)C(C)C)C(N)=O [Compound L63, N-[(3β,5β,12α)-3-[[[[[4,7,10-Tris(carboxymethyl)-1,4,7,10-tetraazacyclododec-1-yl]acetyl]amino]acetyl]amino]-12-hydroxy-24-oxocholan-24-yl]-L-glutaminyl-L-tryptophyl-L-alanyl-L-valyl-glycyl-L-histidyl-L-leucyl-L-methioninamide]?
Answer: uptake in the tumor (in words) ([3]; compared with control L134): high tumour uptake; uptake in the mouse pancreas (in words) [3]: much higher; distribution of radioactivity in blood, liver and kidneys (in words) ([3]; compared with control L134): increased blood and liver values at early times; survival, short term efficacy study (PC3 tumor): increased survival

Question: With CSCC[C@H](NC(=O)[C@H](CC(C)C)NC(=O)[C@H](Cc1c[nH]cn1)NC(=O)CNC(=O)[C@@H](NC(=O)[C@H](C)NC(=O)[C@H](Cc1c[nH]c2ccccc12)NC(=O)[C@H](CCC(N)=O)NC(=O)CC[C@@H](C)[C@H]1CC[C@H]2[C@@H]3[C@H](O)C[C@@H]4C[C@@H](NC(=O)CNC(=O)CN5CCN(CC(=O)O)CCN(CC(=O)O)CCN(CC(=O)O)CC5)CC[C@]4(C)[C@H]3C[C@H](O)[C@]12C)C(C)C)C(N)=O [Compound L64, N-[(3β,5β,7α,12α)-3-[[[[[4,7,10-Tris(carboxymethyl)-1,4,7,10-tetraazacyclododec-1-yl]acetyl]amino]acetyl]amino]-7,12-dihydroxy-24-oxocholan-24-yl]-L-glutaminyl-L-tryptophyl-L-alanyl-L-valyl-glycyl-L-histidyl-L-leucyl-L-methioninamide] as the compound, how does the “uptake in the tumor (in words)” value ([3]; compared with control L134) read?
Answer: much higher

Question: And the “uptake in the mouse pancreas (in words)” value [3]?
Answer: much higher

Question: What about the “survival, short term efficacy study” value (PC3 tumor) of the same compound?
Answer: increased survival

Question: And the “survival, repeat study” value (PC3 tumor; same dose, n=46, followed longer, relative to controls (n=36), p<0.0001)?
Answer: significantly increased survival
